In patent US6841718B2 (priority 2000, dated 2005):

Tested on: bacteria, yeast, algal and fungal spores, and invertebrate larvae
Assay: attachment of organisms

O=C(O)C=Cc1ccc(OS(=O)(=O)O)cc1 [Zosteric acid, para-(sulphooxy) cinnamic acid]
attachment of a wide range of organisms: inhibits attachment
